Assay results: ChEMBL document CHEMBL1140940, “Pyrido[2,3-d]pyrimidin-5-ones: a novel class of antiinflammatory macrophage colony-stimulating factor-1 receptor inhibitors” (J Med Chem, 2009)

Experiments:
[1] = Metabolic stability in rat liver microsomes after 10 mins; type: ADME, Microsome; details: read-out: Stability
[2] = Metabolic stability in human liver microsomes after 10 mins; type: ADME, Microsome; details: read-out: Stability
[3] = target: Macrophage colony-stimulating factor 1 receptor (Homo sapiens, UniProt P07333)
Chain of Macrophage colony-stimulating factor 1 receptor (P07333 whole entry): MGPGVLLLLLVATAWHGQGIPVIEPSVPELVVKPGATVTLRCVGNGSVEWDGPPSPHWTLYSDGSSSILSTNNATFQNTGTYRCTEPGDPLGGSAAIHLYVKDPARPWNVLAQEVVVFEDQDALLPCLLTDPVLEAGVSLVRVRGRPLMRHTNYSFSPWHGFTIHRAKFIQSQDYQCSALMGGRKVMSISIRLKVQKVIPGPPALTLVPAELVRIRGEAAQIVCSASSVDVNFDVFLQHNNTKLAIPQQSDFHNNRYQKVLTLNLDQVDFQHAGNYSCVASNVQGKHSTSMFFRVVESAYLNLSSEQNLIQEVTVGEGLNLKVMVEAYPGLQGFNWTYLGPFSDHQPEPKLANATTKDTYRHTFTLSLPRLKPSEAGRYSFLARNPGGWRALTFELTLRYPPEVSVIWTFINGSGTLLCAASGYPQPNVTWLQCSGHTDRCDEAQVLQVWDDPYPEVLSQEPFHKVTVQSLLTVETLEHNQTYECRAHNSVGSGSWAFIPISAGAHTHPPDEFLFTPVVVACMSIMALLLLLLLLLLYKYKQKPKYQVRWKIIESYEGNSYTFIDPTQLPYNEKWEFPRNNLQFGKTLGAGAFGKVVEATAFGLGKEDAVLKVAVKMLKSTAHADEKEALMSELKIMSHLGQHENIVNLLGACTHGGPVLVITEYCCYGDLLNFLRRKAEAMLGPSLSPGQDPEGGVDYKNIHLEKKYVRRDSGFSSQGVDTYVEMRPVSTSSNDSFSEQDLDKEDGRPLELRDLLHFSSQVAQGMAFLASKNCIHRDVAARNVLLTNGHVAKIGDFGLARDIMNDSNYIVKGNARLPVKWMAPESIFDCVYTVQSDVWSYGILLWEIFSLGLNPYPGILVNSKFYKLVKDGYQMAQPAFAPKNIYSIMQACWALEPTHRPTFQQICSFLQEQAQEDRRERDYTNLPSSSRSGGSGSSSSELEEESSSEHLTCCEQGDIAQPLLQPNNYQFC

[4] = Volume of distribution at steady state in Sprague-Dawley rat at 2 mg/kg, iv; type: ADME, organism-based; design: dose 2 mg/kg, route intravenous; details: in vivo, read-out: Vdss
[5] = Oral bioavailability in Sprague-Dawley rat at 10 mg/kg; type: ADME, organism-based; details: in vivo
[6] = Clearance in Sprague-Dawley rat at 2 mg/kg, iv; type: ADME, organism-based; design: dose 2 mg/kg, route intravenous; details: in vivo
[7] = Cmax in Sprague-Dawley rat at 10 mg/kg, po; type: ADME, organism-based; design: dose 10 mg/kg, route oral; details: in vivo
[8] = Half life in Sprague-Dawley rat at 2 mg/kg, iv; type: ADME, organism-based; design: dose 2 mg/kg, route intravenous; details: in vivo
[9] = Half life in Sprague-Dawley rat at 10 mg/kg, po; type: ADME, organism-based; design: dose 10 mg/kg, route oral; details: in vivo
[10] = target: T1, Receptor-type tyrosine-protein kinase FLT3 (Homo sapiens, UniProt P36888); experiment: Inhibition of FLT3 by fluorescence polarization competition immunoassay
T1 sequence (P36888 whole entry): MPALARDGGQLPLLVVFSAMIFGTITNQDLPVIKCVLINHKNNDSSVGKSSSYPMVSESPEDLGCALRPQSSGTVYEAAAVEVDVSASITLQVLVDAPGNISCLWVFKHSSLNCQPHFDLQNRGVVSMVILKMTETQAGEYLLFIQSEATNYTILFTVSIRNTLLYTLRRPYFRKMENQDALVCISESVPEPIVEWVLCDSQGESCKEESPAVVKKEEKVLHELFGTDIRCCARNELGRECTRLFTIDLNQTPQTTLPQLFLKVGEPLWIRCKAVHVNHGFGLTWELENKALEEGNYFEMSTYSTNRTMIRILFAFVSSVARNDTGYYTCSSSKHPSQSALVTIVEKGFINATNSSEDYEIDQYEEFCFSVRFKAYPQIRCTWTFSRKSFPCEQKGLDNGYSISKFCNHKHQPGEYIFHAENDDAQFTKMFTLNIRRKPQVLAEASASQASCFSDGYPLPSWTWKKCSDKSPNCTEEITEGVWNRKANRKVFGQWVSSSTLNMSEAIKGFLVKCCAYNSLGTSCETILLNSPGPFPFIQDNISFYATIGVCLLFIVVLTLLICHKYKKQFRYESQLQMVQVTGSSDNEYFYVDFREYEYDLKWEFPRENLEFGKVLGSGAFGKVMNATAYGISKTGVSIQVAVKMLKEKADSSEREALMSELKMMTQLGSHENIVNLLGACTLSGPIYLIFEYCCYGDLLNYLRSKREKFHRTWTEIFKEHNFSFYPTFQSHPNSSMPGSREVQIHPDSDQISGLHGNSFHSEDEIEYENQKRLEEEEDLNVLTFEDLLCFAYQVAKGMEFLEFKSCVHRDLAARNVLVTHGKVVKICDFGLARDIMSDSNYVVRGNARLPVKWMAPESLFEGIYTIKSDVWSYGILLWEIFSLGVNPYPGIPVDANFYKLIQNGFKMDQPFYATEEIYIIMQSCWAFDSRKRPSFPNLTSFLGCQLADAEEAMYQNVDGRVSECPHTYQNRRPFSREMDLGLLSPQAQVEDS

[11] = target: Proto-oncogene tyrosine-protein kinase Src (Homo sapiens, UniProt P12931); experiment: Inhibition of Src by fluorescence polarization competition immunoassay
Chain of Proto-oncogene tyrosine-protein kinase Src (P12931 2-536 limits assumed): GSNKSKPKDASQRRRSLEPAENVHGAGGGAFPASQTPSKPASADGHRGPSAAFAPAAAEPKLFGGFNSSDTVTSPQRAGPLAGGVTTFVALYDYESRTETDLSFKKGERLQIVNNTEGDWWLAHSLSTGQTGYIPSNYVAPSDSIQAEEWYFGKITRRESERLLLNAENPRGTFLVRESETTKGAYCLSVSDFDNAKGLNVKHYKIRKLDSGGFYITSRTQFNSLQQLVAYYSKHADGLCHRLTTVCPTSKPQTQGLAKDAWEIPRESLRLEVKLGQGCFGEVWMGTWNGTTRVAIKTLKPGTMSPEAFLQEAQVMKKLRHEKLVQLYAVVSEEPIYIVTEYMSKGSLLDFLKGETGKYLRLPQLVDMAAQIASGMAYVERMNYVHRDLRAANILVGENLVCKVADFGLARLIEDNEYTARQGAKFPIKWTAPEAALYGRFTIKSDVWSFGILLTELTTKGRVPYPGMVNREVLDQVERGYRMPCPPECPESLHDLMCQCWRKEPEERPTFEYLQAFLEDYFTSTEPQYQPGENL

[12] = target: High affinity nerve growth factor receptor (Homo sapiens, UniProt P04629); experiment: Inhibition of TrkA by fluorescence polarization competition immunoassay
Chain of High affinity nerve growth factor receptor (P04629 whole entry): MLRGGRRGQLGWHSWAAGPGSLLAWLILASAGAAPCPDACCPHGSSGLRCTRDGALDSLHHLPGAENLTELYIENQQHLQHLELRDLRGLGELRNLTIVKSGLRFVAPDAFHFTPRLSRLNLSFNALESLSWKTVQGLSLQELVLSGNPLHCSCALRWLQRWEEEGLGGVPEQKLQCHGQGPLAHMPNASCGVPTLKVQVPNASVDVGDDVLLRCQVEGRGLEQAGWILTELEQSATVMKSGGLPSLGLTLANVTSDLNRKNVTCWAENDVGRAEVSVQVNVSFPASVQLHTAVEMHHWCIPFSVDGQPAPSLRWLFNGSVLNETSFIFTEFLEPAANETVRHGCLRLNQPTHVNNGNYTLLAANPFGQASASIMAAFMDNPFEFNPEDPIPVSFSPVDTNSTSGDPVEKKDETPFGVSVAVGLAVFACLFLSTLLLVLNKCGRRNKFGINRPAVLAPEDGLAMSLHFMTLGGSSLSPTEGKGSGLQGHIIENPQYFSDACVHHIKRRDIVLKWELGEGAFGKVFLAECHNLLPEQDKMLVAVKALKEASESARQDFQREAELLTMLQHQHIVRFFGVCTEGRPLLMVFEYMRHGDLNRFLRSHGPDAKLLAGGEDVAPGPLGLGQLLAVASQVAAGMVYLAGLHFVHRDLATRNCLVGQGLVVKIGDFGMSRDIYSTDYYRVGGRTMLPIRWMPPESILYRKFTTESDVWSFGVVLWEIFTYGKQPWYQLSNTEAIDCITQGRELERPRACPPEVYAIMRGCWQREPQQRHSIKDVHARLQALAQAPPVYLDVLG

[13] = target: T2, Tyrosine-protein kinase receptor UFO (Homo sapiens, UniProt P30530); experiment: Inhibition of Axl by fluorescence polarization competition immunoassay
T2 sequence (P30530 whole entry): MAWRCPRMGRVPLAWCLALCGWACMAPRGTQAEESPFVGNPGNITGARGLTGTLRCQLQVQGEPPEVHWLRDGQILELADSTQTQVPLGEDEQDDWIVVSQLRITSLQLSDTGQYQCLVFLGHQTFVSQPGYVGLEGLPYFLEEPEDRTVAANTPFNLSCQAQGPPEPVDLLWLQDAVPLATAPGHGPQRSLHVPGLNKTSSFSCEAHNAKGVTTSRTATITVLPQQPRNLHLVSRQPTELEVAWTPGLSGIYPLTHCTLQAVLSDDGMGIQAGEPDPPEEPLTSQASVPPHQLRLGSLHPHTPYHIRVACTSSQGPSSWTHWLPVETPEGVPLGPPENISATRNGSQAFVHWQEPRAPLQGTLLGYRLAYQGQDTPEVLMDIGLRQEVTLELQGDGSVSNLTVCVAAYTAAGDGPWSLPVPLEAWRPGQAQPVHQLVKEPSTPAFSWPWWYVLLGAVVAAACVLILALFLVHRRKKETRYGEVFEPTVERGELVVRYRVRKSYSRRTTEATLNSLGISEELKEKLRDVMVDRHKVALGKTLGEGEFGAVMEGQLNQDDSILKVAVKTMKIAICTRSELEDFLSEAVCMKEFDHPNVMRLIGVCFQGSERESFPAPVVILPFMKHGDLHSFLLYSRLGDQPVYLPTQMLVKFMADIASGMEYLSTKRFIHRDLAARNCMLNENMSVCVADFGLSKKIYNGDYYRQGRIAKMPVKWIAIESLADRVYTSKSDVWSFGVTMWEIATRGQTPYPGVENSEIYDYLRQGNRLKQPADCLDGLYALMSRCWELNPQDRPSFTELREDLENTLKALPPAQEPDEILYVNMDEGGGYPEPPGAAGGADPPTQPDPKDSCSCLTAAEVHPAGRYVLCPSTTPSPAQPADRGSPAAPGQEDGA

[14] = target: Mast/stem cell growth factor receptor Kit (Homo sapiens, UniProt P10721); experiment: Inhibition of KIT by fluorescence polarization competition immunoassay
Chain of Mast/stem cell growth factor receptor Kit (P10721 whole entry): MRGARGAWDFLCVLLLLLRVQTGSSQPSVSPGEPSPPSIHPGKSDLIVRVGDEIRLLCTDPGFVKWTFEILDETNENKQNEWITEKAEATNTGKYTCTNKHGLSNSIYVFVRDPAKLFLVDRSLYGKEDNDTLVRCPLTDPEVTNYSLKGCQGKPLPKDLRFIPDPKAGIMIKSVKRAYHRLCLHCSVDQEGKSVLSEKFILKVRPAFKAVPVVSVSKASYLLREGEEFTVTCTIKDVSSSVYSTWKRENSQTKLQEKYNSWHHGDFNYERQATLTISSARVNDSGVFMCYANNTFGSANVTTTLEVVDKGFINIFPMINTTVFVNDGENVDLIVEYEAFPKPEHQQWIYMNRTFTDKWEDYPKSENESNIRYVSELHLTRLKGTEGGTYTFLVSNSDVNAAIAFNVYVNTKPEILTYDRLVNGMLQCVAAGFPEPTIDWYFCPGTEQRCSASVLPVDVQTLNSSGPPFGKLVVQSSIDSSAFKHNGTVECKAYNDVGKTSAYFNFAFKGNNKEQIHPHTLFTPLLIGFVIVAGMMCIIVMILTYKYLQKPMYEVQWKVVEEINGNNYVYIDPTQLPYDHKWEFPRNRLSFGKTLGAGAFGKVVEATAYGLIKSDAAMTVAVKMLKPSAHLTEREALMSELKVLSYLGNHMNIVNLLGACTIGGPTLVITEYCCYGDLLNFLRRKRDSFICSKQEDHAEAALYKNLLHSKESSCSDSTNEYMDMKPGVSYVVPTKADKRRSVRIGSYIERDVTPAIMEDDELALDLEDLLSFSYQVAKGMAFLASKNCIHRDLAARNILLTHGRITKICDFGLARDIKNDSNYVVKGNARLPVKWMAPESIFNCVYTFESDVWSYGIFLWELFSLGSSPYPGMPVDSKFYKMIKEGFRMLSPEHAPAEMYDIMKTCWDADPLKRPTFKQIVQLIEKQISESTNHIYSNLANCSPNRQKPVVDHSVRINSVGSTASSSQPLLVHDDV

[15] = target: Platelet-derived growth factor receptor beta (Homo sapiens, UniProt P09619); experiment: Inhibition of PDGFRbeta by fluorescence polarization competition immunoassay
Chain of Platelet-derived growth factor receptor beta (P09619 whole entry): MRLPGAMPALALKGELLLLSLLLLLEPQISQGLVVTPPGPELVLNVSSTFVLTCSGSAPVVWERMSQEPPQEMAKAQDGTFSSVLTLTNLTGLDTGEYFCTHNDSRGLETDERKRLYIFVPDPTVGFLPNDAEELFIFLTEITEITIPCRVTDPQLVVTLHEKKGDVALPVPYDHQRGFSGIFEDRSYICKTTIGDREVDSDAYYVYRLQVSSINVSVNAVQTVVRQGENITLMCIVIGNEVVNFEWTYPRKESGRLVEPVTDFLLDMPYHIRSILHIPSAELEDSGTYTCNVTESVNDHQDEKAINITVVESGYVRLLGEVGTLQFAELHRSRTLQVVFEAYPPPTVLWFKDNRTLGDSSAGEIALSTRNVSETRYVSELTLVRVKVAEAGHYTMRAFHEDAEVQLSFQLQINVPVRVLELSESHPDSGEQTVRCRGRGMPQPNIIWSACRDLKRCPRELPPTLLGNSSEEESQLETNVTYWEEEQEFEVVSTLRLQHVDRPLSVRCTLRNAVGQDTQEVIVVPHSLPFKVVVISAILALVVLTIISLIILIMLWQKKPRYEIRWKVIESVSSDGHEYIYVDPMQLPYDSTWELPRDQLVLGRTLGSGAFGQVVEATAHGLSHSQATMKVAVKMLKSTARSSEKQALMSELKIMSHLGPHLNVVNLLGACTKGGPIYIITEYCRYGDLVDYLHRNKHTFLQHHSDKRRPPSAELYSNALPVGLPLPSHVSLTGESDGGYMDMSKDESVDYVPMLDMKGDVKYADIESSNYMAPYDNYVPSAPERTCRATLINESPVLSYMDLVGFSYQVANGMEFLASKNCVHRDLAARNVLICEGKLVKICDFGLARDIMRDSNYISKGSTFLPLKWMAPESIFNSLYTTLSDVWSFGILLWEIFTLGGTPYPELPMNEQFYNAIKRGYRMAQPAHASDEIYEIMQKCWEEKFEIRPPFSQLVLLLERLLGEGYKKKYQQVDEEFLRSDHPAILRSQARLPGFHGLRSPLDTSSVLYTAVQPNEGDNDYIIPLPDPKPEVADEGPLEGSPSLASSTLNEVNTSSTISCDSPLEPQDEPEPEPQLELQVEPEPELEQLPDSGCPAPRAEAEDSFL

Insulin receptor = Insulin receptor (Homo sapiens, UniProt P06213); experiment: Inhibition of IRKbeta by fluorescence polarization competition immunoassay

CCONC(=O)c1cn(-c2ccc3c(c2)CCC3)c2nc(Nc3ccc(CCN4CCN(C)CC4)cc3)ncc2c1=O
remaining at 10 min [1]: 84%

CONC(=O)c1cn(-c2ccc3c(c2)CCC3)c2nc(Nc3ccc(CCN4CCOCC4)cc3)ncc2c1=O
remaining at 10 min [2]: 5.4%
remaining at 10 min [1]: 24%

CONC(=O)c1cn(-c2ccc3c(c2)CCC3)c2nc(Nc3ccc(CCN4CCC(F)(F)CC4)cc3)ncc2c1=O
remaining at 10 min [2]: 83%
remaining at 10 min [1]: 86%

CCNC(=O)c1cn(-c2ccc3c(c2)CCC3)c2nc(Nc3ccc(CCN4CCN(C)CC4)cc3)ncc2c1=O
IC50 [3]: 3.2 nM

CONC(=O)c1cn(-c2ccc3c(c2)CCC3)c2nc(Nc3ccc(C4CCNCC4)cc3)ncc2c1=O
remaining at 10 min [2]: 97%
IC50 [3]: 0.5 nM
remaining at 10 min [1]: 93%

CCN1CCCC(O)(c2cccc(Nc3ncc4c(=O)c(C(=O)NOC)cn(-c5ccc6c(c5)CCC6)c4n3)c2)C1 (stereo not drawn)
Vd [4]: 5.6 L/kg
remaining at 10 min [2]: 88%
bioavailability [5]: 28%
remaining at 10 min [1]: 89%
clearance [6]: 20.4 mL/min/kg
Cmax [7]: 400 nM
half-life [8]: 5.2 h

CONC(=O)c1cn(-c2ccc3c(c2)CCC3)c2nc(NCc3ccccc3)ncc2c1=O
IC50 [3]: 75 nM

CC(C)ONC(=O)c1cn(-c2ccc3c(c2)CCC3)c2nc(Nc3ccc(CCN4CCN(C)CC4)cc3)ncc2c1=O
IC50 [3]: 0.5 nM
remaining at 10 min [1]: 100%

CONC(=O)c1cn(-c2ccc3c(c2)CCC3)c2nc(Nc3ccc(CCN4CCNC(=O)C4)cc3)ncc2c1=O
Vd [4]: 0.8 L/kg
remaining at 10 min [2]: 35%
bioavailability [5]: 3%
remaining at 10 min [1]: 69%
clearance [6]: 10 mL/min/kg
Cmax [7]: 80 nM
half-life [9]: 9.7 h
half-life [8]: 6 h

CN1CCN(CCc2ccc(Nc3ncc4c(=O)c(C(=O)NCCO)cn(-c5ccc6c(c5)CCC6)c4n3)cc2)CC1
IC50 [3]: 0.7 nM
remaining at 10 min [1]: 84%

CONC(=O)c1cn(-c2ccc3c(c2)CCC3)c2nc(Nc3ccc(OC)nc3)ncc2c1=O
IC50 [3]: 5.2 nM

CONC(=O)c1cn(-c2ccc3c(c2)CCC3)c2nc(Nc3ccc(CCS(=O)(=O)NC(C)=O)cc3)ncc2c1=O
remaining at 10 min [2]: 84%
remaining at 10 min [1]: 83%

CONC(=O)c1cn(-c2ccc3c(c2)CCC3)c2nc(Nc3ccc(C4CCN(CCO)CC4)cc3)ncc2c1=O
Vd [4]: 8.8 L/kg
remaining at 10 min [2]: 80%
bioavailability [5]: 8%
remaining at 10 min [1]: 100%
clearance [6]: 34 mL/min/kg
Cmax [7]: 130 nM
half-life [8]: 3 h

CCc1cccc(-n2cc(C(=O)NOC)c(=O)c3cnc(Nc4ccc(C5CCN(C)CC5)cc4)nc32)c1
IC50 [3]: 0.4 nM

CN1CCN(c2ccc(Nc3ncc4c(=O)c(C(N)=O)cn(-c5ccc6c(c5)CCC6)c4n3)cc2)CC1
bioavailability [5]: 0%

CN1CCN(CCc2ccc(Nc3ncc4c(=O)c(C(N)=O)cn(-c5ccc6c(c5)CCC6)c4n3)cc2)CC1
Vd [4]: 15.5 L/kg
bioavailability [5]: 0%
IC50 [10]: 1 nM
remaining at 10 min [1]: 96%
IC50 [11]: 5900 nM
IC50 [12]: 170 nM
clearance [6]: 25 mL/min/kg
IC50 [13]: > 500 nM
IC50 [14]: 20 nM
IC50 [15]: > 42000 nM
IC50 (Insulin receptor): > 42000 nM
half-life [8]: 7 h

CCCCNc1ncc2c(=O)c(C(=O)NOC)cn(-c3ccc4c(c3)CCC4)c2n1
IC50 [3]: 15 nM

CONC(=O)c1cn(-c2ccc3c(c2)CCC3)c2nc(Nc3ccc(C4CCN(CC(=O)O)CC4)cc3)ncc2c1=O
Vd [4]: 5.1 L/kg
remaining at 10 min [2]: 100%
bioavailability [5]: 0%
IC50 [10]: 41 nM
remaining at 10 min [1]: 99%
IC50 [11]: 930 nM
IC50 [12]: > 500 nM
clearance [6]: 38 mL/min/kg
IC50 [13]: > 500 nM
IC50 [14]: 13 nM
IC50 [15]: > 2000 nM
IC50 (Insulin receptor): 9300 nM
half-life [8]: 1.7 h

CNC(=O)c1cn(-c2ccc3c(c2)CCC3)c2nc(Nc3ccc(CCN4CCOCC4)cc3)ncc2c1=O
Vd [4]: 2.6 L/kg
IC50 [3]: 1.4 nM
bioavailability [5]: 4%
remaining at 10 min [1]: 100%
clearance [6]: 47 mL/min/kg
Cmax [7]: 130 nM
half-life [9]: 1.8 h
half-life [8]: 0.7 h

CONC(=O)c1cn(-c2ccc3c(c2)CCC3)c2nc(Nc3ccc(C4CCN(C)CC4(F)F)cc3)ncc2c1=O (stereo not drawn)
remaining at 10 min [2]: 16%
IC50 [3]: 0.7 nM
remaining at 10 min [1]: 44%

CONC(=O)c1cn(-c2ccc3c(c2)CCC3)c2nc(Nc3ccc(CCN4CCN(C)C(=O)C4)cc3)ncc2c1=O
remaining at 10 min [2]: 2.8%
IC50 [3]: 0.8 nM
remaining at 10 min [1]: 29%

CONC(=O)c1cn(C2CCC(C)(C)CC2)c2nc(Nc3ccc(C4CCN(C)CC4)cc3)ncc2c1=O
remaining at 10 min [2]: 93%
remaining at 10 min [1]: 97%

CONC(=O)c1cn(C2CCCCC2)c2nc(Nc3ccc(C4CCN(C)CC4)cc3)ncc2c1=O
remaining at 10 min [2]: 96%
IC50 [3]: 5 nM
remaining at 10 min [1]: 68%

CNC(=O)c1cn(-c2ccc3c(c2)CCC3)c2nc(Nc3ccc(CCN4CCN(C)CC4)cc3)ncc2c1=O
IC50 [3]: 1.2 nM
remaining at 10 min [1]: 73%
